# Measurements reported in US8956445B2, “High stability diionic liquid salts” (Sigma-Aldrich Co., priority 2004, dated 2015).
# Where two headings read alike, the source gives them in different places.
# Assays:
# [1] = Density (2.0 mL volumetric tube, weighing by difference); type: physicochemical; conditions: 23° C.
# Method: (§1) The densities of the ionic liquids or, more correctly, […] (used synonymously except as indicated otherwise explicitly or by context) was determined at 23° C. by placing 2.0 mL of the ionic liquid in a 2.0 mL volumetric tube and weighing by difference. The melting points of the ionic liquids were determined using a Perkin Elmer Pyris 1 Differential Scanning calorimeter (Boston, Mass.). Typical methods involved using a 10° C./min temperature ramp to determine and identify the first and second order thermal transitions. […] For solid compounds, the melting points were verified using a capillary melting point apparatus. Refractive index measurements were conducted at 23° C. using a Bausch & Lomb Abbe-3L refractometer.
# [2] = Refractive index (Abbe-3L refractometer); type: physicochemical; conditions: 23° C.
# Method: as §1
# [3] = values taken from reference 31, cited from earlier work
# [4] = Surface tension (DuNuoy Tensiometer); type: physicochemical; conditions: room temperature (23° C.)
# [5] = Solvation interaction parameters by inverse gas-liquid chromatography (Abraham solvation model); type: physicochemical
# Method: The preparation of the capillary columns for inverse gas-liquid chromatographic analysis was performed using a previously described procedure.^31 All capillary columns had efficiencies between 2100 to 2500 plates/meter. Characterization of the capillary columns and probe molecule descriptions are listed in supplemental information. Multiple linear regression analysis (MLRA) and statistical calculations were performed using the program Analyse-it (Microsoft, USA).
# We have previously reported that the Abraham solvation model, a linear free energy approach that utilizes inverse gas-liquid chromatography to describe the solvation properties of a liquid, can be used to characterize room temperature ionic liquids.^31 Described by equation 1, the model provides the so-called “interaction parameters” (r, s, a, b, l) by using multiple linear regression analysis to fit the retention factor (k, determined chromatographically) to the solute descriptors (R2, π2^H, α2^H, β2^H, log L^16) for a wide variety of probe solute molecules. […] The solvation properties of four dicationic ionic liquids (see Table 4) were evaluated and the interaction parameters compared to those obtained for their traditional monocationic analogues 1-butyl-3-methylimidazolium and 1-butyl-1-methylpyrrolidinium ionic liquids.
# Previously we characterized a large number of room temperature ionic liquids in terms of multiple solvation interactions using the solvation parameter model, shown in equation 3.^44 log k=c+rR2+sπ2^H+aα2^H+bβ2^H+l log L^16 [3] This approach utilizes inverse gas-liquid chromatography and allows the use of a large number of probe molecules to deconvolute solute retention in terms of the type and magnitude of individual solvation interactions. The solute descriptors (R2, π2^H, α2^H, β2^H, log L^16) from Equation 3 are obtained from the literature for many probe molecules containing a variety of functional groups.^45 The retention factor is determined chromatographically. The solute descriptors and retention factors are subjected to multiple linear regression analysis to obtain the interaction parameter coefficients (r, s, a, b, l), which ultimately characterize the stationary phase: r is the ability of the diionic liquid containing-stationary phase to interact with π and n electrons of the solute, s is a measure of the dipolarity/polarizability of the diionic liquid containing-stationary phase, a defines the diionic liquid containing-stationary phase hydrogen bond basicity, b is a measure of the hydrogen bond acidity, and/refers to the ability of the diionic liquid containing-stationary phase to separate adjacent members of a homologous series.^46
# (§2) Test solutes used to determine interaction parameters and solvation thermodynamics were dissolved in dichloromethane. A Hewlett-Packard model 5890 gas chromatograph and a Hewlett-Packard 6890 series integrator were used for all separations. Split injection and flame ionization detection were utilized with injection and detection temperatures of 250° C. Helium was used as the carrier gas with a column inlet pressure of 3.1 psi and flow rate of 1.0 mL/min. Methane was used to determine the dead volume of the column. Multiple linear regression analysis and statistical calculations were performed using the program Analyze-it (Microsoft).
# [6] = Solvation thermodynamics of probe molecules (van't Hoff plots, GC); type: physicochemical
# Source text: Solvation thermodynamics can be determined chromatographically by recognizing that the Gibbs free energy change, ΔG°, of a solute between the mobile phase and the stationary phase can be described by equation 1:
# [formula] where k is the solute retention factor and Φ is the column phase ratio. An expression shown in equation 2 can then be derived and illustrates the dependence of enthalpy, ΔH°, and entropy, ΔS°, on the change of the retention factor with temperature:
# [formula] A van't Hoff plot of ln k versus 1/T provides the entropy (intercept) and enthalpy (slope) and describes a solute's transfer from the gas phase to the ionic liquid stationary phase. In this work, the solvation thermodynamics were determined for seven different probe molecules, listed in Table D, on two cross-linked ionic liquid phases and one ionic liquid stationary phase. […] For each probe molecule on each stationary phase, three separate van't Hoff plots were constructed so that changes in the probe molecule retention factor could be used to provide an error for each thermodynamic parameter. The probe molecule retention factors were determined at six different temperatures to obtain the highest possible correlation coefficient (>0.989).
# as §2
# [7] = probe 2-Chloroaniline, 40-100° C.
# [8] = probe Ethyl Phenyl Ether, 35-75° C.
compound,measurement,setting,value
1-vinyl-3-dodecylimidazolium bis[(trifluoromethane)sulfonyl]imidate [dvim-NTf2],Density,[1],1.23 g/mL
same,Refractive Index,[2],1.448
1-vinyl-3-hexylimidazolium bis[(trifluoromethane)sulfonyl]imidate [hvim-NTf2],Density,[1],1.36 g/mL
same,Refractive Index,[2],1.443
1-vinyl-3-nonylimidazolium bis[(trifluoromethane)sulfonyl]imidate [nvim-NTf2],Density,[1],1.28 g/mL
same,Refractive Index,[2],1.445
"CCCC[N+]1(C)CCCC1.O=S(=O)([N-]S(=O)(=O)C(F)(F)F)C(F)(F)F [BMPY—NTf2, 1-butyl-1-methylpyrrolidinium bis[(trifluoromethylsulfonyl)imide]]",a (hydrogen bond basicity),[3]; 40° C.,2.08
same,b (hydrogen bond acidity),[3]; 40° C.,0.16
same,"c (interaction parameter table, constant)",[3]; 40° C.,−2.78
same,l (dispersion forces),[3]; 40° C.,0.68
same,r (interaction via nonbonding and π-electrons),[3]; 40° C.,0
same,s (dipolarity/polarizability),[3]; 40° C.,1.69
same,a (hydrogen bond basicity),[3]; 70° C.,1.78
same,b (hydrogen bond acidity),[3]; 70° C.,0
same,"c (interaction parameter table, constant)",[3]; 70° C.,−2.80
same,l (dispersion forces),[3]; 70° C.,0.56
same,r (interaction via nonbonding and π-electrons),[3]; 70° C.,0
same,s (dipolarity/polarizability),[3]; 70° C.,1.53
same,a (hydrogen bond basicity),[3]; 100° C.,1.55
same,b (hydrogen bond acidity),[3]; 100° C.,0
same,"c (interaction parameter table, constant)",[3]; 100° C.,−2.92
same,l (dispersion forces),[3]; 100° C.,0.48
same,r (interaction via nonbonding and π-electrons),[3]; 100° C.,0
same,s (dipolarity/polarizability),[3]; 100° C.,1.44
"Cn1cc[n+](CCC[n+]2ccn(C)c2)c1.O=S(=O)([N-]S(=O)(=O)C(F)(F)F)C(F)(F)F.O=S(=O)([N-]S(=O)(=O)C(F)(F)F)C(F)(F)F [C3(mim)2-NTf2, 1,3-di(3-methylimidazolium)propane di-bis[(trifluoromethyl)sulfonyl]imidate]",Density,[1],1.61 g/mL
same,Miscibility with Heptane,,Immiscible
same,Miscibility with Water,,Immiscible
same,Surface Tension,[4],44.7 dynes/cm
same,Refractive Index,[2],1.440
"Cc1n(C)cc[n+]1CCCCCCCCC[n+]1ccn(C)c1C.F[P-](F)(F)(F)(F)F.F[P-](F)(F)(F)(F)F [C9(m2im)2-PF6, 1,9-di(2,3-dimethylimidazolium)nonane di-hexafluorophosphate]",Miscibility with Heptane,,Immiscible
same,Miscibility with Water,,Immiscible
"Cn1cc[n+](CCCCCCCCC[n+]2ccn(C)c2)c1.F[P-](F)(F)(F)(F)F.F[P-](F)(F)(F)(F)F [C9(mim)2-PF6, 1,9-di(3-methylimidazolium)nonane di-hexafluorophosphate]",Miscibility with Heptane,,Immiscible
same,Miscibility with Water,,Immiscible
"C[N+]1(CCCCCCCCC[N+]2(C)CCCC2)CCCC1.F[P-](F)(F)(F)(F)F.F[P-](F)(F)(F)(F)F [C9(mpy)2-PF6, 1,9-di(methylpyrrolidinium)nonane di-hexafluorophosphate]",Miscibility with Heptane,,Immiscible
same,Miscibility with Water,,Immiscible
C=Cn1cc[n+](CCCCCCCCC[n+]2ccn(C=C)c2)c1.O=S(=O)([N-]S(=O)(=O)C(F)(F)F)C(F)(F)F.O=S(=O)([N-]S(=O)(=O)C(F)(F)F)C(F)(F)F [C9(vim)2-NTf2],Density,[1],1.47 g/mL
same,Refractive Index,[2],1.457
C=Cn1cc[n+](CCCCCCCCCCC[n+]2ccn(C=C)c2)c1.O=S(=O)([N-]S(=O)(=O)C(F)(F)F)C(F)(F)F.O=S(=O)([N-]S(=O)(=O)C(F)(F)F)C(F)(F)F [C11(vim)2-NTf2],Density,[1],1.44 g/mL
same,Refractive Index,[2],1.457
C=Cn1cc[n+](CCCCCCCCCCCC[n+]2ccn(C=C)c2)c1.O=S(=O)([N-]S(=O)(=O)C(F)(F)F)C(F)(F)F.O=S(=O)([N-]S(=O)(=O)C(F)(F)F)C(F)(F)F [C12(vim)2-NTf2],Density,[1],1.42 g/mL
same,Refractive Index,[2],1.458
CCCCCCCCC[n+]1ccn(C)c1.O=S(=O)([N-]S(=O)(=O)C(F)(F)F)C(F)(F)F [nmim-NTf2],Density,[1],1.30 g/mL
same,Refractive Index,[2],1.434
same,a (hydrogen bond basicity),[5]; 40° C.,1.91
same,b (hydrogen bond acidity),[5]; 40° C.,0.36
same,"c (interaction parameter table, constant)",[5]; 40° C.,−2.98
same,l (dispersion forces),[5]; 40° C.,0.75
same,r (interaction via nonbonding and π-electrons),[5]; 40° C.,0
same,s (dipolarity/polarizability),[5]; 40° C.,1.62
same,a (hydrogen bond basicity),[5]; 70° C.,1.57
same,b (hydrogen bond acidity),[5]; 70° C.,0.18
same,"c (interaction parameter table, constant)",[5]; 70° C.,−3.05
same,l (dispersion forces),[5]; 70° C.,0.63
same,r (interaction via nonbonding and π-electrons),[5]; 70° C.,0
same,s (dipolarity/polarizability),[5]; 70° C.,1.54
same,a (hydrogen bond basicity),[5]; 100° C.,1.43
same,b (hydrogen bond acidity),[5]; 100° C.,0.12
same,"c (interaction parameter table, constant)",[5]; 100° C.,−3.47
same,l (dispersion forces),[5]; 100° C.,0.60
same,r (interaction via nonbonding and π-electrons),[5]; 100° C.,0
same,s (dipolarity/polarizability),[5]; 100° C.,1.52
same,ΔHAV,"[6]; probe 1-Octanol, 35-75° C.",-59277 J/mol
same,ΔSAV,"[6]; probe 1-Octanol, 35-75° C.",−151 J/mol*K
same,ΔG,"[6]; probe 1-Octanol, 50° C.",-10481 J/mol
same,ΔHAV,[6]; [7],-57652 J/mol
same,ΔSAV,[6]; [7],−134 J/mol*K
same,ΔG,"[6]; probe 2-Chloroaniline, 70° C.",-11670 J/mol
same,ΔHAV,"[6]; probe Decane, 35-75° C.",-45389 J/mol
same,ΔSAV,"[6]; probe Decane, 35-75° C.",−127 J/mol*K
same,ΔG,"[6]; probe Decane, 50° C.",-4349 J/mol
same,ΔHAV,[6]; [8],-46521 J/mol
same,ΔSAV,[6]; [8],−121 J/mol*K
same,ΔG,"[6]; probe Ethyl Phenyl Ether, 50° C.",-7420 J/mol
same,ΔHAV,"[6]; probe Fluorophenol, 40-100° C.",-48104 J/mol
same,ΔSAV,"[6]; probe Fluorophenol, 40-100° C.",−121 J/mol*K
same,ΔG,"[6]; probe Fluorophenol, 70° C.",-6583 J/mol
same,ΔHAV,"[6]; probe Naphthalene, 40-100° C.",-53789 J/mol
same,ΔSAV,"[6]; probe Naphthalene, 40-100° C.",−127 J/mol*K
same,ΔG,"[6]; probe Naphthalene, 70° C.",-10209 J/mol
same,ΔHAV,"[6]; probe Nitropropane, 27-50° C.",-39010 J/mol
same,ΔSAV,"[6]; probe Nitropropane, 27-50° C.",−109 J/mol*K
same,ΔG,"[6]; probe Nitropropane, 35° C.",-5422 J/mol
